Data from patent US20220096516A1, “OLIGONUCLEOTIDE MOLECULE AND APPLICATION THEREOF IN TUMOR THERAPY” (Ractigen Therapeutics, priority 2019, published 2022).
d = 2'-deoxy (DNA); r = 2'-OH (RNA)

Test system: LHPP gene
Assay: High-throughput screening of saRNAs targeting LHPP promoter: LHPP mRNA by one-step RT-qPCR in Huh7 cells
Type: cell-based, human
Conditions: 10 nM saRNA, 72 hours, relative to control (Mock)
Description: Human liver cancer cell line Huh7 was cultured in DMEM medium (Gibco), containing 10% of calf serum (Sigma-Aldrich) and 1% of penicillin/streptomycin (Gibco). The cells were cultured at 5% CO2 and 37° C. According to the instructions provided by the manufacturer, RNAiMax (Invitrogen, Carlsbad, Calif.) was used to transfect small activating RNAs at a concentration of 10 nM (unless otherwise specified).
At the end of transfection, the media were discarded, and each well was washed with 150 μL of PBS once. After discarding the PBS, 50 μL of cell lysis buffer (Takara) was added to each well and incubated at room temperature for 5 min. 1 μL of the resulted cell lysis was taken from each well and analyzed by qPCR on an ABI 7500 fast real-time PCR system (Applied Biosystems) using a one-step TB Green™ PrimeScrip™ RT-PCR kit II (Takara, RR086A) Each transfection sample was repeatedly amplified in 3 replicate wells.
Reaction conditions were as follows: reverse transcription reaction (stage 1): 5 min at 42° C., 10 s at 95° C.; PCR reaction (stage 2): 5 s at 95° C., 20 s at 60° C., 45 cycles of amplification. HPRT1 and TBP were used as internal reference genes. PCR primers used for amplifying LHPP, HPRT1 and TBP genes are shown in Table 2, wherein LHPP was amplified using the LHPP F1/R1 primer pair.
To calculate the relative expression level (Erel) of LHPP (target gene) in an saRNA-transfected sample relative to control treatment (Mock), the Ct values of the target gene and the two internal reference genes were substituted into formula 1
Erel=2^(CtT^m^-CtT^s^)/((2^(CtR1^m^-CtR1^s^)*2^(CtR2^m^-CtR2^s^))^(1/2))
wherein CtTm was the Ct value of the target gene from the control (Mock) sample; CtTs was the Ct value of the target gene from the saRNA-treated sample; CtR1m was the Ct value of the internal reference gene 1 from the control (Mock) sample; CtR1s was the Ct value of the internal reference gene 1 from the saRNA-treated sample; CtR2m was the Ct value of the internal reference gene 2 from the control (Mock) sample; and CtR2s was the Ct value of the internal reference gene 2 from the saRNA-treated sample.
In order to obtain saRNAs capable of activating LHPP transcription, Huh7 cells were transfected with each of the aforementioned 290 saRNAs with a transfection concentration of 10 nM, and 72 hours later, according to the same method as described above, the cells were lysed and analyzed by one-step RT-qPCR to obtain the relative (compared with the control (Mock)) expression level of LHPP gene for each saRNA-treated sample. […] The observed maximum activation and maximum inhibition is 3.46 fold and 0.49 fold, respectively, saRNAs with activating activity are referred to as activating saRNAs, and the saRNAs with inhibiting activity are referred to as inhibiting saRNAs.

| Substance | Fold of changes in relative LHPP mRNA expression level | Fold of changes in relative LHPP mRNA expression level (log2) |
| --- | --- | --- |
| RAG7-29: saRNA duplex; sense CACCCGGUCUUCUUGCCCUTT (SEQ ID NO: 79), antisense AGGGCAAGAAGACCGGGUGTT (SEQ ID NO: 243) (sugars from the 5' end r19 d2, backbone not given here) | 1.28 fold | 0.35 log2 |
| RAG7-31: saRNA duplex; sense UGCACCCGGUCUUCUUGCCTT (SEQ ID NO: 94), antisense GGCAAGAAGACCGGGUGCATT (SEQ ID NO: 258) (sugars from the 5' end r19 d2, backbone not given here) | 1.23 fold | 0.30 log2 |
| RAG7-32: saRNA duplex; sense UUGCACCCGGUCUUCUUGCTT (SEQ ID NO: 44), antisense GCAAGAAGACCGGGUGCAATT (SEQ ID NO: 208) (sugars from the 5' end r19 d2, backbone not given here) | 1.40 fold | 0.49 log2 |
| RAG7-33: saRNA duplex; sense UUUGCACCCGGUCUUCUUGTT (SEQ ID NO: 119), antisense CAAGAAGACCGGGUGCAAATT (SEQ ID NO: 283) (sugars from the 5' end r19 d2, backbone not given here) | 1.18 fold | 0.24 log2 |
| RAG7-34: saRNA duplex; sense GUUUGCACCCGGUCUUCUUTT (SEQ ID NO: 26), antisense AAGAAGACCGGGUGCAAACTT (SEQ ID NO: 190) (sugars from the 5' end r19 d2, backbone not given here) | 1.51 fold | 0.59 log2 |
| RAG7-35: saRNA duplex; sense GGUUUGCACCCGGUCUUCUTT (SEQ ID NO: 24), antisense AGAAGACCGGGUGCAAACCTT (SEQ ID NO: 188) (sugars from the 5' end r19 d2, backbone not given here) | 1.53 fold | 0.61 log2 |
| RAG7-43: saRNA duplex; sense CAGUUCCGGGUUUGCACCCTT (SEQ ID NO: 93), antisense GGGUGCAAACCCGGAACUGTT (SEQ ID NO: 257) (sugars from the 5' end r19 d2, backbone not given here) | 1.23 fold | 0.30 log2 |
| RAG7-44: saRNA duplex; sense CCAGUUCCGGGUUUGCACCTT (SEQ ID NO: 121), antisense GGUGCAAACCCGGAACUGGTT (SEQ ID NO: 285) (sugars from the 5' end r19 d2, backbone not given here) | 1.18 fold | 0.24 log2 |
| RAG7-86: saRNA duplex; sense CCGUUUCAGGGGCGAGUGATT (SEQ ID NO: 137), antisense UCACUCGCCCCUGAAACGGTT (SEQ ID NO: 301) (sugars from the 5' end r19 d2, backbone not given here) | 1.15 fold | 0.20 log2 |
| RAG7-89: saRNA duplex; sense ACACCGUUUCAGGGGCGAGTT (SEQ ID NO: 104), antisense CUCGCCCCUGAAACGGUGUTT (SEQ ID NO: 268) (sugars from the 5' end r19 d2, backbone not given here) | 1.21 fold | 0.28 log2 |
| RAG7-92: saRNA duplex; sense AGGACACCGUUUCAGGGGCTT (SEQ ID NO: 155), antisense GCCCCUGAAACGGUGUCCUTT (SEQ ID NO: 319) (sugars from the 5' end r19 d2, backbone not given here) | 1.11 fold | 0.15 log2 |
| RAG7-93: saRNA duplex; sense AAGGACACCGUUUCAGGGGTT (SEQ ID NO: 144), antisense CCCCUGAAACGGUGUCCUUTT (SEQ ID NO: 308) (sugars from the 5' end r19 d2, backbone not given here) | 1.14 fold | 0.19 log2 |
| RAG7-94: saRNA duplex; sense AAAGGACACCGUUUCAGGGTT (SEQ ID NO: 13), antisense CCCUGAAACGGUGUCCUUUTT (SEQ ID NO: 177) (sugars from the 5' end r19 d2, backbone not given here) | 1.64 fold | 0.72 log2 |
| RAG7-95: saRNA duplex; sense AAAAGGACACCGUUUCAGGTT (SEQ ID NO: 12), antisense CCUGAAACGGUGUCCUUUUTT (SEQ ID NO: 176) (sugars from the 5' end r19 d2, backbone not given here) | 1.67 fold | 0.74 log2 |
| RAG7-96: saRNA duplex; sense GAAAAGGACACCGUUUCAGTT (SEQ ID NO: 105), antisense CUGAAACGGUGUCCUUUUCTT (SEQ ID NO: 269) (sugars from the 5' end r19 d2, backbone not given here) | 1.21 fold | 0.27 log2 |
| RAG7-97: saRNA duplex; sense CGAAAAGGACACCGUUUCATT (SEQ ID NO: 71), antisense UGAAACGGUGUCCUUUUCGTT (SEQ ID NO: 235) (sugars from the 5' end r19 d2, backbone not given here) | 1.29 fold | 0.37 log2 |
| RAG7-98: saRNA duplex; sense CCGAAAAGGACACCGUUUCTT (SEQ ID NO: 145), antisense GAAACGGUGUCCUUUUCGGTT (SEQ ID NO: 309) (sugars from the 5' end r19 d2, backbone not given here) | 1.14 fold | 0.19 log2 |
| RAG7-100: saRNA duplex; sense UUCCGAAAAGGACACCGUUTT (SEQ ID NO: 125), antisense AACGGUGUCCUUUUCGGAATT (SEQ ID NO: 289) (sugars from the 5' end r19 d2, backbone not given here) | 1.17 fold | 0.22 log2 |
| RAG7-102: saRNA duplex; sense GCUUCCGAAAAGGACACCGTT (SEQ ID NO: 96), antisense CGGUGUCCUUUUCGGAAGCTT (SEQ ID NO: 260) (sugars from the 5' end r19 d2, backbone not given here) | 1.23 fold | 0.30 log2 |
| RAG7-103: saRNA duplex; sense AGCUUCCGAAAAGGACACCTT (SEQ ID NO: 72), antisense GGUGUCCUUUUCGGAAGCUTT (SEQ ID NO: 236) (sugars from the 5' end r19 d2, backbone not given here) | 1.29 fold | 0.37 log2 |
| RAG7-104: saRNA duplex; sense AAGCUUCCGAAAAGGACACTT (SEQ ID NO: 43), antisense GUGUCCUUUUCGGAAGCUUTT (SEQ ID NO: 207) (sugars from the 5' end r19 d2, backbone not given here) | 1.41 fold | 0.50 log2 |
| RAG7-106: saRNA duplex; sense GAAAGCUUCCGAAAAGGACTT (SEQ ID NO: 150), antisense GUCCUUUUCGGAAGCUUUCTT (SEQ ID NO: 314) (sugars from the 5' end r19 d2, backbone not given here) | 1.12 fold | 0.17 log2 |
